Reference: ChEMBL document CHEMBL5321290, “Discovery of the Diphenyl 6-Oxo-1,6-dihydropyridazine-3-carboxylate/carboxamide Analogue J27 for the Treatment of Acute Lung Injury and Sepsis by Targeting JNK2 and Inhibiting the JNK2-NF-κB/MAPK Pathway” (J Med Chem, 2023)
Calls of active or inactive are those of the source. The rule behind the calls is not given here.

Legend:
[1] = system: J774.A1; assay: Antiinflammatory activity against mouse J774A.1 cells assessed as inhibition of LPS-stimulated IL6 mRNA expression pretreated for 2 hrs followed by stimulated with LPS by RT-qPCR analysis; assay type: functional, cell-based; settings: dose 2.5-10 µM
[2] = system: Mus musculus; assay: Antiinflammatory activity against LPS-induced septic shock mouse model assessed as improvement in survival at 20 mg/kg, po pretreated 1 hr before LPS administration measured upto 96 hrs; assay type: functional, organism-based; settings: time <= 97.0 hrs
[3] = target: Transcription factor p65 (Mus musculus) (UniProt Q04207); assay: Inhibition of P65 phosphorylation in mouse J774A.1 cells pretreated at 10 uM for 2 hrs followed by induced with LPS for 30 mins by Western blot analysis; assay type: cell-based; settings: J774.1, time 2.5 hrs
[4] = target: T1, Mitogen-activated protein kinase kinase kinase 7 (Mus musculus) (UniProt Q62073); assay: Inhibition of TAK1 phosphorylation in mouse J774A.1 cells pretreated at 10 uM for 2 hrs followed by induced with LPS for 30 mins by Western blot analysis; assay type: cell-based; settings: J774.1, time 2.5 hrs
T1 sequence (whole entry): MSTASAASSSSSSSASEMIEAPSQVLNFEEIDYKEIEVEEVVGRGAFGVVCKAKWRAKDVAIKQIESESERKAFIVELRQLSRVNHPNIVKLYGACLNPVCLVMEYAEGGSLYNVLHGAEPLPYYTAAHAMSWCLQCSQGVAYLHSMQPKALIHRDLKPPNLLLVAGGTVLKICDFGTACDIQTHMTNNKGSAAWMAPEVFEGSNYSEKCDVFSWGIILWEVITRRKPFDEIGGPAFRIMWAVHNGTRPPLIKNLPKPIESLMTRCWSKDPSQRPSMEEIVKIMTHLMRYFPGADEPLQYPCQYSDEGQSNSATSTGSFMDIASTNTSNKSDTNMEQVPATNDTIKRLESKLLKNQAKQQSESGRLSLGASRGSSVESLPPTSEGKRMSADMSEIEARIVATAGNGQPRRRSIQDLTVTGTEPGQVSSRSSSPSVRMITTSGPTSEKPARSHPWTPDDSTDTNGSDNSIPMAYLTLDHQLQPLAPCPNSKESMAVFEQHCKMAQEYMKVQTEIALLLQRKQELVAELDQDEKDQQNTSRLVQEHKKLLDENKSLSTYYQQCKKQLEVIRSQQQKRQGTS

[5] = target: Mitogen-activated protein kinase 9 (Homo sapiens, UniProt P45984); assay: Binding affinity to JNK2 (unknown origin) assessed as dissociation constant by SPR analysis
[6] = target: Mitogen-activated protein kinase 8 (Mus musculus) (UniProt Q91Y86); assay: Binding affinity to JNK1 in protein lysate of LPS-stimulated mouse J774A.1 cells assessed as protein degradation in presence of pronase at 10 to 40 uM measured after overnight incubation by immunoblotting based drug affinity responsive target stability (DARTS) assay; assay type: subcellular; settings: J774.1, dose 10-40 µM
[7] = target: Mitogen-activated protein kinase 10 (Mus musculus) (UniProt Q61831); assay: Binding affinity to JNK3 in protein lysate of LPS-stimulated mouse J774A.1 cells assessed as protein degradation in presence of pronase at 10 to 40 uM measured after overnight incubation by immunoblotting based drug affinity responsive target stability (DARTS) assay; assay type: subcellular; settings: J774.1, dose 10-40 µM
[8] = Subacute toxicity in ICR mouse assessed as mortality at 500 to 100 mg/kg, IG measured for 10 days; assay type: organism-based; settings: in vivo, po, 240 h, dose 500-100 mg/kg, time 10 day
[9] = Half life in Sprague-Dawley rat at 10 mg/kg, po measured upto 24 hrs by UPLC-MS/MS analysis; assay type: ADME, organism-based; settings: in vivo
[10] = Cmax in Sprague-Dawley rat at 10 mg/kg, po measured upto 24 hrs by UPLC-MS/MS analysis; assay type: ADME, organism-based; set-up: time < 24 hrs, dose 10 mg/kg, route po; settings: in vivo
[11] = system: THP-1; assay: Antiinflammatory activity against human THP-1 cells assessed as inhibition of LPS-stimulated TNFalpha release measured after 30 mins by ELISA; assay type: functional; settings: 0.5 h

Chain of Mitogen-activated protein kinase 9 (P45984 whole entry): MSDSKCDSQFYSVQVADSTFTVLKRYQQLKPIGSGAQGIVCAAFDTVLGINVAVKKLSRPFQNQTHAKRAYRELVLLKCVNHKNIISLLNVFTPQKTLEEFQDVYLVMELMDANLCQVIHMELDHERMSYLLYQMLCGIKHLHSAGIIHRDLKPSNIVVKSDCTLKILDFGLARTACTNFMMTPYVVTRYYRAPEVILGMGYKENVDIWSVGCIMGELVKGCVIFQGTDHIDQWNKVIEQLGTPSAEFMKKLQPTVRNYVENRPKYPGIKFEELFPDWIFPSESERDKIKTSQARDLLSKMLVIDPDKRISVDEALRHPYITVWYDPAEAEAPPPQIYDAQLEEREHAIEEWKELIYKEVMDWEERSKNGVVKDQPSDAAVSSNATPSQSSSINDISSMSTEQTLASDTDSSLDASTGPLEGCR
Chain of Mitogen-activated protein kinase 10 (Mus musculus) (Q61831 whole entry): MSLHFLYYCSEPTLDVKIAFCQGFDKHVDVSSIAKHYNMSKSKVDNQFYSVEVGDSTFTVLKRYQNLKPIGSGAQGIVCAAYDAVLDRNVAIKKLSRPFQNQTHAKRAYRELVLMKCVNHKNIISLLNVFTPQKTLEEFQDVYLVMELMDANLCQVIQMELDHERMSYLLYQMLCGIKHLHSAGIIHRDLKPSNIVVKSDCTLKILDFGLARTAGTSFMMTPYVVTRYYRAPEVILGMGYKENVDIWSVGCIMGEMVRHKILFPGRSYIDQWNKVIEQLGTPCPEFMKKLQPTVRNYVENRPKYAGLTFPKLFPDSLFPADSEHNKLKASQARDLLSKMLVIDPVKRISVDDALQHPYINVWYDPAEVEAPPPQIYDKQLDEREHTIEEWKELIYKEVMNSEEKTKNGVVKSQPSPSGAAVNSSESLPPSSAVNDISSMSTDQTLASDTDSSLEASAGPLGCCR
Chain of Transcription factor p65 (Mus musculus) (Q04207 whole entry): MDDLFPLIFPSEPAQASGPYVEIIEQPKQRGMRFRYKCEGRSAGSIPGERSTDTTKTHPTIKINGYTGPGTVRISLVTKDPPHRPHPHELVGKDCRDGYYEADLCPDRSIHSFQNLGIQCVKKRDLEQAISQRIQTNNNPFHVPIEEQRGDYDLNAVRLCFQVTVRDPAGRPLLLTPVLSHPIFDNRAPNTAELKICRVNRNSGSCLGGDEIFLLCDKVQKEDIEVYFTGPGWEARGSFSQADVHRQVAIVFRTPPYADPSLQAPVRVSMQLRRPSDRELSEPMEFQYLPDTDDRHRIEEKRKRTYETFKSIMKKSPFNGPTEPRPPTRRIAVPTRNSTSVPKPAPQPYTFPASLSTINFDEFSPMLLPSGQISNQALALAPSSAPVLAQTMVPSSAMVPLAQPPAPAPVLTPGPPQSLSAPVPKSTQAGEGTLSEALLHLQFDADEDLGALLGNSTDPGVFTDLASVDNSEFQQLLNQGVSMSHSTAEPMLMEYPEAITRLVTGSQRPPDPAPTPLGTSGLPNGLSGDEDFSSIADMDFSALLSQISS
Chain of Mitogen-activated protein kinase 8 (Mus musculus) (Q91Y86 whole entry): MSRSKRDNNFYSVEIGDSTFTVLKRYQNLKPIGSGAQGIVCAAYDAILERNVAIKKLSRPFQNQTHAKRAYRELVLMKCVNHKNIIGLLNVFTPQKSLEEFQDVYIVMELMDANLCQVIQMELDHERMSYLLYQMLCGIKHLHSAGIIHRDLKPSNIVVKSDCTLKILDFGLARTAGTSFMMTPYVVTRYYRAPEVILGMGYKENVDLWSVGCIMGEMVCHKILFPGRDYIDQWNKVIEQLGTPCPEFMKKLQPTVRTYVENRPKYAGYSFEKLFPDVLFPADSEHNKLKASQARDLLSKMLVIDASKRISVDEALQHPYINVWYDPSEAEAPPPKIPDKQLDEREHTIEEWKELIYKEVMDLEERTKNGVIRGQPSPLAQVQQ

Q: Which Activity [1] does the source give for COc1cc2nccc(Oc3ccc(NC(=O)c4nn(-c5ccc(C)cc5)c(=O)cc4C)cc3)c2cc1OC here?
A: The Activity was “Dose-Dependent Effect”.

Q: What about the Activity [2] of the same compound?
A: Its Activity is “Active”.

Q: What about the inhibition [3] of the same compound?
A: Its inhibition is “Active”.

Q: What about the inhibition [4] of the same compound?
A: Its inhibition is “Active”.

Q: What about the Kd [5] of the same compound?
A: Its Kd is 79.2 µM.

Q: What about the Activity [6] of the same compound?
A: The Activity was “inactive”.

Q: And the Activity [7]?
A: Its Activity is “inactive”.

Q: And the Activity [8]?
A: Its Activity is “Non-Toxic”.

Q: And the half-life [9]?
A: Its half-life is 1.16 h.

Q: And the Cmax [10]?
A: The Cmax was 1870 ng/mL.

Q: And the IC50 [11]?
A: The IC50 was 1.76 µM.
